Measurements reported in the supplement of paper PMC10307832.

Experiments:
Assay in all cases: relative viability (nuclei count vs DMSO), 5 days (fraction); higher = more cells survive
[1] = compound: CC1=CC(=CC=C1)NC2=NC(=CS2)C3=CC=NC=C3 + Cc1cc(Nc2cc(N3CCN(C)CC3)nc(Sc3ccc(NC(=O)C4CC4)cc3)n2)n[nH]1 [Tozasertib] (partner 0.1 µM)
In short: (§1)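 Lung cancer cell lines, seeded in 1536-well plates, were treated the following day by pin tool with a single drug or with five library-drug doses (not always all listed) in √10 steps on top of a fixed anchor-drug dose. Cells were fixed and nuclei stained in one step after 5 days, and nuclei were counted. Relative viability is the nuclei count for treated wells divided by that for vehicle wells, reported as medians of duplicate plates.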

Masitinib + Pemetrexed = compound: Cc1ccc(NC(=O)c2ccc(CN3CCN(C)CC3)cc2)cc1Nc1nc(-c2cccnc2)cs1 [Masitinib] + Nc1nc2[nH]cc(CCc3ccc(C(=O)N[C@@H](CCC(=O)O)C(=O)O)cc3)c2c(=O)[nH]1 [Pemetrexed] (partner 0.2 µM)
In short: as §1

Masitinib + Crizotinib = compound: Cc1ccc(NC(=O)c2ccc(CN3CCN(C)CC3)cc2)cc1Nc1nc(-c2cccnc2)cs1 [Masitinib] + C[C@@H](Oc1cc(-c2cnn(C3CCNCC3)c2)cnc1N)c1c(Cl)ccc(F)c1Cl [Crizotinib] (partner 1 µM)
In short: as §1

Masitinib + Navitoclax = compound: Cc1ccc(NC(=O)c2ccc(CN3CCN(C)CC3)cc2)cc1Nc1nc(-c2cccnc2)cs1 [Masitinib] + CC1(C)CCC(c2ccc(Cl)cc2)=C(CN2CCN(c3ccc(C(=O)NS(=O)(=O)c4ccc(N[C@H](CCN5CCOCC5)CSc5ccccc5)c(S(=O)(=O)C(F)(F)F)c4)cc3)CC2)C1 [Navitoclax] (partner 0.5 µM)
In short: as §1

Cell Line	relative viability ([1]; first compound 0.08 µM)	relative viability ([1]; first compound 0.253 µM)	relative viability ([1]; first compound 0.8 µM)	relative viability ([1]; first compound 2.53 µM)	relative viability ([1]; first compound 8 µM)	relative viability (Masitinib + Pemetrexed; first compound 0.01 µM)	relative viability (Masitinib + Pemetrexed; first compound 0.03162 µM)	relative viability (Masitinib + Pemetrexed; first compound 0.1 µM)	relative viability (Masitinib + Pemetrexed; first compound 1 µM)	relative viability (Masitinib + Crizotinib; first compound 0.01 µM)	relative viability (Masitinib + Crizotinib; first compound 0.03162 µM)	relative viability (Masitinib + Crizotinib; first compound 0.1 µM)	relative viability (Masitinib + Crizotinib; first compound 0.3162 µM)	relative viability (Masitinib + Crizotinib; first compound 1 µM)	relative viability (Masitinib + Navitoclax; first compound 0.01 µM)	relative viability (Masitinib + Navitoclax; first compound 0.03162 µM)	relative viability (Masitinib + Navitoclax; first compound 0.1 µM)	relative viability (Masitinib + Navitoclax; first compound 0.3162 µM)	relative viability (Masitinib + Navitoclax; first compound 1 µM)	relative viability (Masitinib + Pemetrexed; first compound 0.3162 µM)
NCI-H1648	0.387	0.315	0.46	0.384	0.294	0.635	0.891	0.75	0.7	–	–	–	–	–	–	–	–	–	–	–
A549	–	–	–	–	–	–	–	–	–	0.666	0.805	0.823	0.686	0.722	1.18	1.19	1.41	1.19	1.23	–
LCLC-103H	0.529	0.405	0.427	0.429	0.388	–	0.465	0.416	0.424	0.783	1.08	0.891	0.969	1.03	–	–	–	–	–	0.469
NCI-H1703	–	–	–	–	–	–	–	–	–	0.483	0.758	0.293	0.492	0.139	0.748	0.898	0.464	0.29	0.243	–
Calu-6	–	–	–	–	–	–	–	–	–	0.781	0.808	0.886	0.843	0.73	0.836	0.872	0.89	0.821	0.904	–
NCI-H2342	0.533	0.423	0.573	0.476	0.505	0.741	0.72	0.831	0.781	–	–	–	–	–	–	–	–	–	–	0.746
